Measured values published in the NIST ThermoML archive (doi:10.1021/je900691n).

Assay: xn = mol fraction of the nth substance listed
Settings: Liquid, Pycnometric method

COC(=O)OC [dimethyl carbonate] + O=C=O
mass density [kg/m3]
Settings	308.15 K	313.15 K
6160 kPa, x1 = 0.1484	926	–
6420 kPa, x1 = 0.118	904	–
6750 kPa, x1 = 0.086	864	–
6760 kPa, x1 = 0.1484	931	–
6780 kPa, x1 = 0.1484	–	905
6900 kPa, x1 = 0.118	909	–
7020 kPa, x1 = 0.118	–	880
7160 kPa, x1 = 0.0481	787	–
7260 kPa, x1 = 0.1484	936	–
7280 kPa, x1 = 0.1484	–	909
7340 kPa, x1 = 0.086	–	834
7500 kPa, x1 = 0.118	–	886
7520 kPa, x1 = 0.0242	697	–
7620 kPa, x1 = 0.0481	800	–
7630 kPa, x1 = 0.0242	705	–
7680 kPa, x1 = 0.118	917	–
7730 kPa, x1 = 0.1484	939	–
7780 kPa, x1 = 0.0242	718	–
7780 kPa, x1 = 0.1484	–	914
7850 kPa, x1 = 0.0481	–	740
7940 kPa, x1 = 0.086	881	–
7990 kPa, x1 = 0.0242	731	–
8050 kPa, x1 = 0.0481	–	748
8050 kPa, x1 = 0.118	–	893
8200 kPa, x1 = 0.118	922	–
8220 kPa, x1 = 0.0242	–	606
8230 kPa, x1 = 0.0242	744	–
8230 kPa, x1 = 0.0481	816	–
8250 kPa, x1 = 0.0242	–	613
8250 kPa, x1 = 0.1484	943	–
8260 kPa, x1 = 0.0481	–	757
8290 kPa, x1 = 0.0242	–	622
8290 kPa, x1 = 0.1484	–	918
8350 kPa, x1 = 0.086	–	852
8380 kPa, x1 = 0.0242	–	636
8480 kPa, x1 = 0.0242	755	–
8490 kPa, x1 = 0.0242	–	650
8510 kPa, x1 = 0.0481	–	767
8590 kPa, x1 = 0.0242	–	665
8730 kPa, x1 = 0.086	890	–
8740 kPa, x1 = 0.0481	827	–
8760 kPa, x1 = 0.0242	–	681
8760 kPa, x1 = 0.1484	–	922
8780 kPa, x1 = 0.1484	947	–
8790 kPa, x1 = 0.086	–	859
8870 kPa, x1 = 0.0242	770	–
8920 kPa, x1 = 0.0242	–	692
8930 kPa, x1 = 0.0481	–	780
9000 kPa, x1 = 0.118	–	903
9030 kPa, x1 = 0.118	929	–
9110 kPa, x1 = 0.0242	–	705
9180 kPa, x1 = 0.0242	780	–
9250 kPa, x1 = 0.0481	837	–
9250 kPa, x1 = 0.086	–	865
9250 kPa, x1 = 0.1484	–	926
9260 kPa, x1 = 0.1484	950	–
9420 kPa, x1 = 0.0242	–	721
9480 kPa, x1 = 0.0481	–	795
9630 kPa, x1 = 0.0242	–	731
9630 kPa, x1 = 0.086	900	–
9640 kPa, x1 = 0.0242	792	–
9650 kPa, x1 = 0.118	–	910
9670 kPa, x1 = 0.118	935	–
9690 kPa, x1 = 0.0481	844	–
9720 kPa, x1 = 0.086	–	871
9740 kPa, x1 = 0.1484	953	–
9770 kPa, x1 = 0.1484	–	930
9920 kPa, x1 = 0.0242	799	–
9960 kPa, x1 = 0.0242	–	744
9960 kPa, x1 = 0.0481	–	807
10120 kPa, x1 = 0.0481	852	–
10130 kPa, x1 = 0.086	905	876
10180 kPa, x1 = 0.0242	806	–
10230 kPa, x1 = 0.1484	956	–
10240 kPa, x1 = 0.1484	–	934
10280 kPa, x1 = 0.0242	–	755
10300 kPa, x1 = 0.118	–	916
10420 kPa, x1 = 0.0481	–	816
10530 kPa, x1 = 0.0481	858	–
10580 kPa, x1 = 0.0242	–	765
10600 kPa, x1 = 0.0242	814	–
10600 kPa, x1 = 0.118	942	–
10740 kPa, x1 = 0.1484	–	937
10770 kPa, x1 = 0.1484	960	–
10870 kPa, x1 = 0.086	–	885
10930 kPa, x1 = 0.086	913	–
10980 kPa, x1 = 0.0242	–	775
11010 kPa, x1 = 0.0242	822	–
11010 kPa, x1 = 0.0481	–	827
11010 kPa, x1 = 0.118	–	922
11080 kPa, x1 = 0.0481	865	–
11120 kPa, x1 = 0.086	–	888
11180 kPa, x1 = 0.118	946	–
11230 kPa, x1 = 0.1484	962	–
11280 kPa, x1 = 0.1484	–	941
11290 kPa, x1 = 0.0242	828	–
11340 kPa, x1 = 0.086	917	–
11400 kPa, x1 = 0.0242	–	785
11430 kPa, x1 = 0.0481	–	834
11500 kPa, x1 = 0.0481	871	–
11550 kPa, x1 = 0.118	–	927
11710 kPa, x1 = 0.086	–	893
11740 kPa, x1 = 0.0242	–	793
11740 kPa, x1 = 0.1484	966	–
11750 kPa, x1 = 0.0242	836	–
11770 kPa, x1 = 0.1484	–	944
11800 kPa, x1 = 0.086	921	–
11950 kPa, x1 = 0.0481	–	842
12020 kPa, x1 = 0.0242	839	–
12030 kPa, x1 = 0.118	–	930
12040 kPa, x1 = 0.0481	878	–
12080 kPa, x1 = 0.0242	–	801
12130 kPa, x1 = 0.086	–	898
12210 kPa, x1 = 0.086	924	–
12230 kPa, x1 = 0.1484	969	–
12300 kPa, x1 = 0.118	954	–
12330 kPa, x1 = 0.1484	–	948
12420 kPa, x1 = 0.0242	846	–
12450 kPa, x1 = 0.0481	–	849
12520 kPa, x1 = 0.0242	–	809
12530 kPa, x1 = 0.0481	883	–
12700 kPa, x1 = 0.086	–	903
12700 kPa, x1 = 0.118	–	935
12740 kPa, x1 = 0.1484	971	–
12780 kPa, x1 = 0.0242	852	–
12850 kPa, x1 = 0.086	929	–
12970 kPa, x1 = 0.0481	888	–
13270 kPa, x1 = 0.1484	975	–
13350 kPa, x1 = 0.086	934	–
13660 kPa, x1 = 0.0481	895	–
13820 kPa, x1 = 0.1484	978	–
13850 kPa, x1 = 0.086	937	–
14140 kPa, x1 = 0.086	939	–
14270 kPa, x1 = 0.1484	980	–
14460 kPa, x1 = 0.0481	903	–
14760 kPa, x1 = 0.086	944	–
15030 kPa, x1 = 0.1484	984	–
15060 kPa, x1 = 0.068	946	–
15240 kPa, x1 = 0.0481	911	–
15490 kPa, x1 = 0.068	949	–
15690 kPa, x1 = 0.1484	987	–
16010 kPa, x1 = 0.068	953	–
16350 kPa, x1 = 0.1484	990	–
